Data on two compounds can be found in ChEMBL document CHEMBL1122452, “Mitomycin C analogues with secondary amines at position 7” (J Med Chem, 1983).

Molecules are shown by their SMILES.

The subject of series [1] is B16. Nature of the series: Average weight change after ip administration of a dose of 1 mg/kg/day in B-16 melanoma in mice. In kind it is functional, Mus musculus. The note with it: route intraperitoneal.
Series [2] deals with B16. As to the kind of experiment: Average weight change after ip administration of a dose of 2 mg/kg/day in B-16 melanoma in mice. Type of series: functional, Mus musculus. To be noted: route intraperitoneal.
The test system of series [3] is B16. Nature of the series: Average weight change after ip administration of a dose of 3 mg/kg/day in B-16 melanoma in mice. In kind it is functional, Mus musculus. The note with it: route intraperitoneal.
For series [4], the system named is B16. As to the kind of experiment: Average weight change after ip administration of a dose of 4 mg/kg/day in B-16 melanoma in mice. Type of series: functional, Mus musculus. The note with it: route intraperitoneal.
The test system of series [5] is B16. Nature of the series: Tumor free survivors on 62nd day after ip administration of a dose of 1 mg/kg/day in B-16 melanoma in mice. Type of series: functional, Mus musculus. The note with it: route intraperitoneal.
Series [6] deals with B16. Nature of the series: Tumor free survivors on 62nd day after ip administration of a dose of 2 mg/kg/day in B-16 melanoma in mice. Type of series: functional, Mus musculus. The note with it: route intraperitoneal.
Series [7] concerns B16. Nature of the series: Tumor free survivors on 62nd day after ip administration of a dose of 3 mg/kg/day in B-16 melanoma in mice. Type of series: functional, Mus musculus. To be noted: route intraperitoneal.
For series [8], the system named is B16. Nature of the series: Tumor free survivors on 62nd day after ip administration of a dose of 4 mg/kg/day in B-16 melanoma in mice. In kind it is functional, Mus musculus. To be noted: route intraperitoneal.
Series [9] relates to B16. As to the kind of experiment: Median survival time (% T/C) after ip administration of a dose of 1 mg/kg/day in B-16 melanoma in mice. To be noted: route intraperitoneal. Type of series: functional, Mus musculus.
The subject of series [10] is B16. Nature of the series: Median survival time (% T/C) after ip administration of a dose of 2 mg/kg/day in B-16 melanoma in mice. In kind it is functional, Mus musculus. To be noted: route intraperitoneal.
In series [11] the test system is B16. Nature of the series: Median survival time (% T/C) after ip administration of a dose of 3 mg/kg/day in B-16 melanoma in mice. Type of series: functional, Mus musculus. The note with it: route intraperitoneal.
For series [12], the system named is B16. Nature of the series: Median survival time (% T/C) after ip administration of a dose of 4 mg/kg/day inB-16 melanoma in mice. In kind it is functional, Mus musculus. To be noted: route intraperitoneal.
In series [13] the test system is P388. Nature of the series: Leukopenia % change in WBC at optimal dose on 3rd day. Type of series: functional, Mus musculus.
Series [14] has as its system P388. As to the kind of experiment: Maximum % T/C against P-388 murine leukemia cells in mice. In kind it is functional, Mus musculus.
The subject of series [15] is P388. Nature of the series: Minimum effective dose required for antitumor activity against P-388 murine leukemia cells in mice. Type of series: functional. The note with it: Mus musculus, read-out: MED.
Series [16] in a line: E1/2 value related to the saturated calomal electrode. In kind it is ADME. On the set-up: unit not given here.
In series [17] the test system is P388. As to the kind of experiment: Optimal dose required for antitumor activity against P-388 murine leukemia cells in mice. In kind it is functional, Mus musculus.
Series [18] relates to B16. Nature of the series: Average weight change after ip administration of a dose of 6 mg/kg/day in B-16 melanoma in mice. Type of series: functional, Mus musculus. The note with it: route intraperitoneal.
The test system of series [19] is B16. Nature of the series: Tumor free survivors on 62nd day after ip administration of a dose of 4 mg/kg/day in B-16 melanoma in mice; out of 10. In kind it is functional, Mus musculus. The note with it: route intraperitoneal.
Series [20] concerns B16. Nature of the series: Tumor free survivors on 62nd day after ip administration of a dose of 6 mg/kg/day in B-16 melanoma in mice; out of 10. In kind it is functional, Mus musculus. To be noted: route intraperitoneal.
Series [21] deals with B16. Nature of the series: Median survival time (% T/C) after ip administration of a dose of 4 mg/kg/day in B-16 melanoma in mice. In kind it is functional, Mus musculus. To be noted: route intraperitoneal.
The subject of series [22] is B16. As to the kind of experiment: Median survival time (% T/C) after ip administration of a dose of 6 mg/kg/day in B-16 melanoma in mice. The note with it: route intraperitoneal. Type of series: functional, Mus musculus.
In series [23] the test system is P388. Nature of the series: Maximum % T/C with mitomycin C against P-388 murine leukemia cells in mice. Type of series: functional, Mus musculus.

What is called T/C is the result in the treated group divided by that in the control group, in per cent. `CO[C@@]12[C@H](COC(N)=O)C3=C(C(=O)C(C)=C(N)C3=O)N1C[C@@H]1N[C@@H]12` [MITOMYCIN]: the Average weight change is 0.2 g in [1], 0.5 g in [2], -0.1 g in series [3] and -0.1 g in series [4]. For the same compound, the Cures in [5], in series [6], in [7] and in series [8] was 0 throughout. Moreover, the T/C in series [9] is listed as 155%; in series [10] it was 152%; in [11], 165%; in series [12], 200%; in [14] it was 161%. The Change in WBC in [13] was -42%. In series [15], the minimal effective dose was 0.2 mg/kg. This compound came in with an E1/2 in series [16] of -0.45. In series [17], this compound yielded a Dose of 3.2 mg/kg.

On to `COC12[C@@H]3N[C@@H]3CN1C1=C(C(=O)C(N3CCN(C=O)CC3)=C(C)C1=O)[C@@H]2COC(N)=O` (stereo partly drawn), for which the Average weight change in series [1] is given as 0 g; in series [2] it was -0.1 g; in series [3] it was -0.4 g; in series [4] it was -1 g; in series [18] it was -0.7 g. The Cures in series [5] was determined as 1; in [6], 5; in [7], 6; in [19], 6; in series [20], 2. Also, the T/C in series [9] is given as 210%; in [10] it was 275%; in series [11], 310%; in [21], 310%; in [22] it was 88%; in [14], 294%. In series [23], this compound returned a T/C of 224%. Moreover, the “Change in WBC” value in series [13] came to 16%. Besides, the minimal effective dose in [15] stood at 0.2 mg/kg. For the same compound, in series [16], the E1/2 was 0.23. The Dose in series [17] is 6.4 mg/kg.
